Assay results: a melting point compilation (Tetko et al.; mined from patent text by program, amines drawn as free bases though some values may be those of a salt)

Compound	melting point [°C]
CC(=O)c1ccc2c(c1)N(C(=O)OC(C)(C)C)CCC2	125 to 127
CCCOC(=O)C(C)NC(=O)C(CC(=O)O)NC(=O)C1CCCN1 (centres undefined)	233 to 235
Cc1cc(C)cc(CCCn2c(=O)[nH]c3cc(Cl)cc(Cl)c3c2=O)c1	205 to 208
Cc1ccc([N+](=O)[O-])c(O)c1CCC(C)Br (centres undefined)	67 to 69
CCOC(CNC1=Nc2sc(CC)cc2C(c2ccccc2Cl)=NC1)OCC	124 to 127
CCC(C)(C)NC(Nc1cc(OC)cc(OC)c1)=C(C#N)S(=O)(=O)c1ccc(Cl)cc1	189 to 190
COC(=O)C(=CNc1cc(-c2ccccc2Cl)sc1C(=O)O)SC	80 to 85
C=Cc1c2c(c(C)c(C)c1N1CCN(c3ccc(OC)cc3)CC1)OC(C)(C)C2=O	147 to 148
CC1=CC(c2cccs2)(C(C)C(=O)O)Nc2ccccc21 (centres undefined)	228 to 229
Cc1c(NC(=O)C(CS)CC(C)C)cccc1C(=O)O (centres undefined)	166 to 168
NCc1ccn(-c2cc3c(cc2[N+](=O)[O-])[nH]c(=O)c(=O)n3CC(=O)O)c1	> 270
CC1NC(=O)NN=C1c1ccc(C#N)cc1 (centres undefined)	268 to 269
CC(C)c1ccc(C(=O)C2CCc3ccccc3C2)c(C(C)C)c1OS(N)(=O)=O (centres undefined)	137 to 139
Cc1ccnc(NC#N)n1	203
NC(=O)c1c(C(=O)O)cnn1-c1cccc(F)c1	215 to 216
IC#CCOCc1cccnc1	109 to 110
CC(C)CC1(CC(=O)NO)CCN(Cc2ccccc2)C1=O (centres undefined)	119 to 120
CC(C)(C)c1cc(NC(=O)NCc2ccc([N+](=O)[O-])cc2)cc(C(C)(C)C)c1O	240 to 241
Nc1n[nH]c2c1CCC2	116 to 120
COc1ccc2c3c1O[C@H]1C[C@@H](O)C=C[C@@]31CCN(CCN1CCOCC1)C2	101 to 104
COc1cc(CNc2n[nH]c3ncnc(Nc4cccc(Cl)c4)c23)ccc1O	223 to 225
Cc1cc(Cl)ccc1N1CN(C)CN(C)C1=S	103 to 105

Compound	melting point [°C]
CCS(=O)(=O)c1c(CS(=O)(=O)C2=NOC(C)(C)C2)c(C(F)(F)F)nn1-c1ccccc1	158 to 160
CCOCc1nc2cnc(C)c(C)c2n1NC1CCOCC1	94 to 97
CC(C)c1cccc(S(=O)(=O)n2c(CCCCC(=O)O)cc3cc(C(F)(F)F)ccc32)c1	119
c1cc2cc(-n3cnnc3)ncc2[nH]1	254 to 257
OC(COCC1CNCCO1)c1ccc2ccccc2c1 (centres undefined)	141 to 144
O=c1nc(N2CCN(Cc3ccccc3)CC2)sc2c([N+](=O)[O-])cc(C(F)(F)F)cc12	161 to 163
COC(=O)c1scc(-c2ccccc2)c1S(N)(=O)=O	172 to 175
CCOP(=O)(CCN1CC(O)CNc2c1c(=O)c2=O)OCC (centres undefined)	169 to 171
CC1(C)CCC(C)(C)c2cc(NC(=O)c3ccccc3)ccc21	146 to 148
O=C(O)COc1cc(Cl)ccc1C(=O)NCc1cc(F)cc(C(F)(F)F)c1	160 to 162
O=[N+]([O-])c1cncn1CCO	101 to 102
O=c1[nH]c2cc([N+](=O)[O-])c3c(c2[nH]c1=O)CN(S(=O)(=O)c1cccs1)CC3	> 300
CCON=C(CC)C1=C(O)CC(c2ccc(C(=O)OC)cc2)CC1=O (centres undefined)	75 to 76
Brc1ccc(C2(c3ccc(Br)cc3)OCCO2)cc1	103 to 104
CCn1cc(C(=O)O)c(=O)c2cc(F)c(N3CCN(Cc4ccc([N+](=O)[O-])cc4)CC3)c(F)c21	241 to 242
Cc1ccc(-c2cc3c(s2)CCCC(C(=O)O)=C3)cc1	250 to 251
CCOC(=O)COc1c(C(=O)OC)cc(Cl)cc1[N+](=O)[O-]	68 to 70
O=C(NCc1ccc(Cl)cc1)c1cc2c(O)c(C(=O)NCc3ccc(Cl)cc3)cnc2o1	230 to 245
CCCCc1nc(O)c(CC(=O)OCC)c(O)n1	260
CC1(C)CC(=O)C(C(=O)Nc2ccc(Cl)c(Cl)c2)C(=O)C1	124 to 129
CCc1ncnc2cc(OC)c(OCC3CO3)cc12 (centres undefined)	120 to 122
CCOC(=O)/C=C(C)/C=C/C=C(\C)C1=Cc2cc(C(C)(C)C)cc(C(C)(C)C)c2OC1	130 to 131

Compound	melting point [°C]
CC(C)C1C(=O)Nc2ccc(O)cc21 (centres undefined)	175
Cn1c(CC#N)cc(Cl)c1C(=O)c1ccc(Cl)cc1	139 to 142
COc1cc2c(cc1O)CCN(Cc1ccccc1OC)C2	128 to 129
Nc1nc(O)c2cc(CN(CCF)c3ccc(C(=O)N[C@@H](CCC(=O)O)C(=O)O)cc3)ccc2n1	> 350
Cc1ccc(F)c(-c2cncc(OC3SCC(O)C(O)C3O)c2)c1 (centres undefined)	198
CC(Oc1ccc(Oc2ccc3ccc(Br)cc3n2)cc1)C(=O)NCC(=O)O (centres undefined)	157 to 159
CSc1ccc(C(C)Nc2nc(N)nc(C(F)(F)F)n2)cc1 (centres undefined)	111
Oc1ccc(Nc2ncc3nc(Nc4c(F)cc(F)cc4F)n(C4CCCC4)c3n2)cn1	257 to 260
Cc1ccc(O)c(C)c1N	177 to 179
CCn1c(Oc2cccc(N)c2)nnc1[C@@H](C)NS(=O)(=O)c1ccc(Cl)c(Cl)c1	142 to 145
COC(=O)/C(C#N)=C/c1ccccc1	90 to 91
O=C1C[C@@H](C(=O)OCc2ccccc2)N(C(=O)OCc2ccccc2)C1	55 to 56
COC(=O)C(=CNc1ccc(O)cc1C)C(=O)C=CC1=CCCC1	148 to 151
CC1CNc2cccc3c(=O)c(C(=O)O)cn1c23 (centres undefined)	> 250
COc1ccc(C(=CF)C(N)C(=O)O)cc1O (centres undefined)	214
CCCCOc1cc2c(cc1C)C(=O)CC2(C)C	59
Nc1ccc(CN2CCN(c3ccc(F)cc3)CC2)cc1	130 to 132
CC(=O)NCc1ccc(CN2CCN(c3nc(C)cc(C)n3)CC2)cc1	127 to 128
CC1(C)CCCC(=Cc2ccc(Cl)cc2)C1(O)Cn1cncn1 (centres undefined)	179
COc1cc(C(=O)c2c(-c3ccc(OCCN4CCCC4)cc3)sc3ccc(O)cc23)ccc1CN1CCCC1	95 to 99
O=C(O)c1cc(OCCCOc2ccc(OCc3ccccc3)cc2)cc(OCCCOc2ccc(OCc3ccccc3)cc2)c1	139 to 140
O=C(O)c1ccc(OCCNC(=O)C2Cc3ccccc3N2S(=O)(=O)c2ccc(-c3cccc(C(F)(F)F)c3)cc2)c(F)c1 (centres undefined)	96 to 104

Results, then the molecule that gave them:

melting point [°C]	Compound
149 to 151	CCCCc1nc2c(N)nc3ccccc3c2n1CCCCCC(=O)c1ccccc1
111 to 113	CC(C)c1nc(C(C)C)c(CN2CCN(c3ccccc3)CC2)c(-c2ccc(F)cc2)c1CO
80 to 82	COc1ccc(-c2nnsc2-c2ccc(OC)cc2)cc1
164 to 165	CN1CCN(c2ccc(-c3cnc4c(c3)N(S(=O)(=O)c3ccccc3Cl)CCN4)cn2)CC1
150 to 151	COc1ccc(S(=O)(=O)Nc2ccccc2NC(=O)c2cc(C)nc(Cl)c2)cc1
159 to 160	Oc1ccc2ccc(OCCN3CCC(Cc4ccccc4)CC3)cc2c1
133 to 135	Fc1cc(C(F)(F)F)ccc1/C=C/c1nc(COc2ccc(-c3nc(Cn4ccnc4)cs3)cc2)co1
128 to 129	CN1CCC(Nc2nccc(Oc3ccc(NC(=O)c4cc(F)cc(N5CCOCC5)c4)c4ccccc34)n2)CC1
142	CCOC(=O)c1c(C)n(-c2ccccc2)c(C)c(C(=O)OCc2ccccc2)c1=O
161 to 162	COC(=O)c1cccc(-c2nc(COc3ccc(COc4nn(-c5ccccc5)cc4C=O)cc3)c(C)o2)c1
155 to 157	Cc1[nH]c(C(=O)Nc2ccc3ncsc3c2)c(C)c1-c1nc2ccc(C(=O)c3ccccc3)cc2[nH]1
> 300	Cn1cc(C2=C(c3cn(C)c4ccccc34)C(=O)NC2=O)c2ccccc21
189 to 190	c1cc(Nc2ccc3[nH]ncc3c2)ccn1
181 to 185	CC(C)c1c(C=CC2CC(O)CC(O)O2)n(-c2ccc(Cl)cc2)c(=O)c2ccccc12 (mixture of isomers)
290 to 291	Cc1[nH]n(C2CCCC2C)c2nc(-c3ccncc3)nc(=O)c1-2 (centres undefined)
172	C(=C\c1nc2ccccc2n1-c1ccncc1)/c1ccoc1
159 to 160	O=C(c1ccccc1)n1c(=O)c(C(F)(F)F)cn(C2CC(O)C(COCc3ccc(Cl)cc3)O2)c1=O (centres undefined)

melting point [°C]	Compound
198 to 201	CN1c2ccccc2CN(C(=O)c2ccc(-c3ccccc3)cc2)c2ccccc21
88 to 96	CCOc1cccc(-c2ccnc(Nc3cccc(OC(F)(F)C(F)F)c3)n2)c1
122 to 123	Clc1cccc(-n2c(/C=C/c3ccccc3)nc3ccccc32)n1
84	CCCCOc1ccc(S(=O)(=O)C2(C(=O)O)CCN(CCCOc3ccccc3)CC2)cc1
84 to 86	CC1(C)CN(CC2COc3ccccc3C2)c2nc(-c3ccncn3)cc(=O)n2C1 (racemic)
137 to 140	Clc1ccc2ccc(COc3cccc(CN4CCc5cccc(CCc6nnn[nH]6)c54)c3)nc2c1
199 to 202	Nc1cnc(-c2ccccc2)nc1C(=O)O
191 to 193	CCc1ccccc1N1CCN(C(=O)Nc2nc3ccccc3nc2OC)CC1
148 to 151	COC[C@](C#N)(C(=O)OC)[C@H](c1ccccc1OC)c1cccc2ccccc12
162	Cc1cc(COc2ccc(S(=O)(=O)NC[C@@H](C(=O)NO)N3CCN(C(=O)OCc4ccccc4)CC3)cc2)c2ccccc2n1
213	Cc1ccc(S(=O)(=O)c2c(N3CCN(C(=O)c4cccs4)CC3)c3ccccc3n(C)c2=O)cc1
187 to 190	O=C(O)c1cn2c(-c3ccccc3)ncc2c2ccccc12
175 to 177	O=C(O)c1ccccc1COc1ccccc1Br
260 to 263	O=C1NC(=O)C(=Cc2ccc(OCCCN3Cc4ccccc4C3=O)cc2)S1
147 to 148	Cc1ccc(-c2ccc(S(N)(=O)=O)cc2)n1-c1ccc(F)cc1
191	O=C(O)CNC(=O)c1nc2ccccc2cc1O
